Read-outs that look alike come from different tables or passages of the source.
Columns and labels:
AChE [1] = biological target: T1, AChE (Homo sapiens, UniProt P22303); assay: AChE inhibition in presence of the competitive inhibitor JTE-907 (cooperative activities); format: biochemical; design: key to ΔISC035 (combination minus SC035 alone): difference in % AChE inhibition (combination minus SC035 alone); settings: for Effect of combining with JTE-907 on AChE inhibition: sum of activities with JTE-907
T1 construct: purchased Sigma Chemical Co., Madrid, Spain
Procedure: (§1) The method was adapted from Ellman et al.[47] The assay solution consisted of 0.1 M phosphate buffer pH 8, […] 5,5′-dithiobis(2-nitrobenzoic acid) (DTNB, Ellman’s reagent), 0.05 unit/ml AChE (Sigma Chemical Co., Madrid, Spain, Cholinesterase, acetyl human recombinant), and […] acetylthiocholine iodide as the substrate of the enzymatic reaction. The compounds tested were added to the assay solution and the absorbance changes at 412 nm were recorded for 5 min with a UV/Vis Microplate and cuvette Spectrophotometer, Thermo Electron Type, Multiskan Spectrum. The reaction rates were compared, and the per cent inhibition due to the presence of test compounds was calculated. […] All the experiments were performed in triplicate.
Clearly, both compounds bind to AChE at an allosteric site. […] If our hypothesis is right, the binding of VP2.33 and SC035 to the allosteric site 3 in presence of JTE-907 should show a cooperative behaviour in terms of inhibition of the AChE.

AChE [2] = biological target: T1, AChE; settings: cited from earlier work
[3] = biological target: T2, AChE (Cholinesterase, acetyl human recombinant) (Homo sapiens, UniProt P22303); assay: biochemical; format: biochemical
T2 construct: purchased Sigma Chemical Co., Madrid, Spain
Procedure: as §1

AChE [4] = biological target: T1, AChE; assay: Kinetic study of AChE inhibition (Lineweaver-Burk); format: biochemical; settings: Lineweaver-Burk plots, four substrate and three inhibitor concentrations
Procedure: To investigate the mechanism of action of the compounds on AChE, a kinetic analysis was performed. The experiments were carried out using combinations of four substrate concentrations, and three inhibitor concentrations. Double-reciprocal Lineweaver–Burk plotting of the data obtained, in which each point is mean of three different experiments, were analysed.
Mixed inhibitors cause intersects above or below the x-axis.

[5] = Table S1 first grid, JTE907 2.5 μM + SC035 25 μM
[6] = Table S1 first grid, JTE907 5 μM + SC035 50 μM
[7] = Table S1 first grid, JTE907 20 μM + SC035 25 μM
[8] = Table S1 first grid, JTE907 20 μM + SC035 50 μM
[9] = Table S1 second grid, SC035 25 μM + JTE907 5 μM
[10] = Table S1 second grid, SC035 50 μM + JTE907 2.5 μM
[11] = Table S1 second grid, SC035 50 μM + JTE907 5 μM
[12] = Table S1 second grid, SC035 70 μM + JTE907 2.5 μM
[13] = Table S1 second grid, SC035 70 μM + JTE907 5 μM
[14] = Table 4, compounds selected to bind site 3, read-out: IC50
[15] = compound alone, read-out: Individual inhibition of AChE

T2 sequence (P22303 32-614): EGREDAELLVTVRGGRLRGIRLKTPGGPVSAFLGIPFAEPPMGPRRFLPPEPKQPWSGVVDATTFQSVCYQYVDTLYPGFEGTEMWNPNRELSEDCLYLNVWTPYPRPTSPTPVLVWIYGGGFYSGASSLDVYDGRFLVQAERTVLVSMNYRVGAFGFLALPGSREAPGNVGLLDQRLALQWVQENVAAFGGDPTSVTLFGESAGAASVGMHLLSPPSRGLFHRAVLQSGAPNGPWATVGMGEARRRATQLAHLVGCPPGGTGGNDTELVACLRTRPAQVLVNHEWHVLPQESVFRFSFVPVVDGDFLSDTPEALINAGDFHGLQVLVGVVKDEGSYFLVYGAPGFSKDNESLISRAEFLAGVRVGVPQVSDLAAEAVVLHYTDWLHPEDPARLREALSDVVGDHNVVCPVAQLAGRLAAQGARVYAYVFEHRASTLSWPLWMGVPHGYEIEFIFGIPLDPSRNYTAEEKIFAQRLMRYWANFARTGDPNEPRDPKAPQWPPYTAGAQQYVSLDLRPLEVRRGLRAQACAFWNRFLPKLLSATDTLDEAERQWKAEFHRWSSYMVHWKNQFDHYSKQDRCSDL
T1 sequence (P22303 32-614): as above

With `CCCCCOc1c(OC)ccc2cc(C(=O)NCc3ccc4c(c3)OCO4)c(=O)[nH]c12` [JTE907, reference compound] as the compound, how does the “ΔIJTE907 (combination minus JTE907 alone)” value (AChE [1]; JTE907 5 μM + VP2.33 25 μM) read?
Its value is “ΔIJTE907 = 19.86”.

What about the “ΔIJTE907 (combination minus JTE907 alone)” value (AChE [1]; JTE907 5 μM + VP2.33 50 μM) of the same compound?
Its value is “ΔIJTE907 = 44.53”.

And the “ΔIJTE907 (combination minus JTE907 alone)” value (AChE [1]; JTE907 10 μM + VP2.33 25 μM)?
The value was “ΔIJTE907 = 11.79”.

What about the “ΔIJTE907 (combination minus JTE907 alone)” value (AChE [1]; JTE907 20 μM + VP2.33 25 μM) of the same compound?
The value was “ΔIJTE907 = 15.66”.

What about the “ΔIJTE907 (combination minus JTE907 alone)” value (AChE [1]; JTE907 20 μM + VP2.33 50 μM) of the same compound?
Its value is “ΔIJTE907 = 24.96”.

And the “ΔIJTE907 (combination minus JTE907 alone)” value (AChE [1]; [5])?
Its value is 21,5.

And the “ΔIJTE907 (combination minus JTE907 alone)” value (AChE [1]; Table S1 first grid, JTE907 2.5 μM + SC035 50 μM)?
Its value is 33.

And the “ΔIJTE907 (combination minus JTE907 alone)” value (AChE [1]; [6])?
The value was 19,52.

What about the “ΔIJTE907 (combination minus JTE907 alone)” value (AChE [1]; [7]) of the same compound?
The value was -3,46.

What about the “ΔIJTE907 (combination minus JTE907 alone)” value (AChE [1]; [8]) of the same compound?
The value was -3,34.

And the “ΔIJTE907 (combination minus JTE907 alone)” value (AChE [1]; Table S1 second grid, SC035 25 μM + JTE907 2.5 μM)?
Its value is 18,41.

What about the “ΔIJTE907 (combination minus JTE907 alone)” value (AChE [1]; [9]) of the same compound?
Its value is 13,78.

And the “ΔIJTE907 (combination minus JTE907 alone)” value (AChE [1]; [10])?
Its value is 33,91.

And the “ΔIJTE907 (combination minus JTE907 alone)” value (AChE [1]; [11])?
The value was 17,2.

And the “ΔIJTE907 (combination minus JTE907 alone)” value (AChE [1]; [12])?
The value was 48,02.

And the “ΔIJTE907 (combination minus JTE907 alone)” value (AChE [1]; [13])?
Its value is 20,33.

What about the “Individual inhibition of AChE” value (AChE [1]; compound alone, 2.5 μM) of the same compound?
The value was 14,09±2,85%.

And the “Individual inhibition of AChE” value (AChE [1]; compound alone, 5 μM)?
Its value is 34,22±1,13% and JTE907 5μM (30.34 ± 2.85%).

And the “Individual inhibition of AChE” value (AChE [1]; compound alone, 10 μM)?
Its value is “JTE907 10 μM (56.78 ± 1.35%)”.

What about the “Individual inhibition of AChE” value (AChE [1]; compound alone, 20 μM) of the same compound?
The value was 65,78±2,37% and JTE907 20 μM (65.10 ± 2.37%).

And the “Mechanism of AChE inhibition” value (AChE [2])?
The value was “pure competitive inhibitor”.

With `O=C(/C=C/c1ccc(O)c(O)c1)O[C@H](Cc1ccc(O)c(O)c1)C(=O)O` [Rosmarinic acid, reference compound] as the compound, how does the IC50 ([3]; IC50 (μM), Table 3, compounds selected to bind site 2) read?
Its IC50 is greater than 10 µM.

What about the inhibition at 10 µM ([3]; read-out: % of inhibition at 10 μM) of the same compound?
The inhibition at 10 µM was 26%.

Which results are given for `O=C(CN1CCCC1)NN1c2ccccc2Sc2ccc(Cl)cc21` [SC035]?
IC50 [3, 14]: 42.1 ± 4.3 µM; Mechanism of inhibition versus substrate ACh (AChE [4]): non-competitive inhibition; ΔISC035 (combination minus SC035 alone) (AChE [1]; [5]): -6,74; ΔISC035 (combination minus SC035 alone) (AChE [1]; Table S1 first grid, JTE907 5 μM + SC035 25 μM): 2,26; ΔISC035 (combination minus SC035 alone) (AChE [1]; [6]): -4,98; ΔISC035 (combination minus SC035 alone) (AChE [1]; [7]): 19,99; ΔISC035 (combination minus SC035 alone) (AChE [1]; [8]): 3,72; ΔISC035 (combination minus SC035 alone) (AChE [1]; [9]): 5,67; ΔISC035 (combination minus SC035 alone) (AChE [1]; [10]): -10,72; ΔISC035 (combination minus SC035 alone) (AChE [1]; [11]): -7,3; ΔISC035 (combination minus SC035 alone) (AChE [1]; [12]): -13,21; ΔISC035 (combination minus SC035 alone) (AChE [1]; [13]): -20,77; inhibition at 25 µM (AChE [1]; [15]): 42.3%; inhibition at 50 µM (AChE [1]; [15]): 58.7%; inhibition at 70 µM (AChE [1]; compound alone, 70 μM, read-out: Individual inhibition of AChE): 75.3%; Effect of combining with JTE-907 on AChE inhibition (AChE [1]): no addition of activities

With `NC1=NC(=O)C2N=C(c3ccccc3)C(c3ccccc3)=NC2=N1` (stereo not drawn) [SC251] as the compound, how does the IC50 ([3]; Table 3, compounds selected to bind site 2, read-out: IC50) read?
Its IC50 is 2.76 ± 0.25 µM.

And the “Mechanism of inhibition versus substrate ACh” value (AChE [4])?
The value was “non-competitive-mixed”.

Which IC50 [3, 14] does the source give for `OCCNc1nc(-c2cccc3ccccc23)[n+](-c2ccccc2)s1` [VP2.33] here?
The IC50 was 49.6 ± 1.5 µM.

What about the “Mechanism of inhibition versus substrate ACh” value (AChE [4]) of the same compound?
Its value is “non-competitive inhibition”.

And the “ΔIVP2.33 (combination minus VP2.33 alone)” value (AChE [1]; JTE907 5 μM + VP2.33 50 μM)?
The value was “ΔIVP2.33 = 17.16”.

What about the “ΔIVP2.33 (combination minus VP2.33 alone)” value (AChE [1]; JTE907 10 μM + VP2.33 25 μM) of the same compound?
Its value is “ΔIVP2.33 = 41.29”.

What about the “ΔIVP2.33 (combination minus VP2.33 alone)” value (AChE [1]; JTE907 10 μM + VP2.33 50 μM) of the same compound?
Its value is “ΔIVP2.33 = 27.71”.

What about the “ΔIVP2.33 (combination minus VP2.33 alone)” value (AChE [1]; JTE907 20 μM + VP2.33 25 μM) of the same compound?
Its value is “ΔIVP2.33 = 53.48”.

What about the “ΔIVP2.33 (combination minus VP2.33 alone)” value (AChE [1]; JTE907 20 μM + VP2.33 50 μM) of the same compound?
Its value is “ΔIVP2.33 = 32.35”.

What about the inhibition at 25 µM (AChE [1]; [15]) of the same compound?
The inhibition at 25 µM was 27.3%.

And the inhibition at 50 µM (AChE [1]; [15])?
The inhibition at 50 µM was 57.7%.

What about the “Effect of combining with JTE-907 on AChE inhibition” value (AChE [1]) of the same compound?
Its value is “an effect of cooperative activities”.
